Data published in US5840843A, “Synthetic polypeptides as inhibitors of HIV-1” (priority 1995, dated 1998).
Bridge positions count the residues as written; N and C are the ends. Ends that are not written are not given here. I, II: the chains in the order shown.

Experiments:
[1] = test system: AZT-resistant mutant of HIV-1; assay: Inhibition of infection by AZT-resistant HIV-1 mutant; type: cell-based; details: FIG. 6
Experimental: (§1) For virus inhibition assays, H9, MT-2 and U937 cells were used as target cells. Five HIV-1 isolates (IIIB, MN, RF, SF2, and an AZT-resistant mutant) were cultivated in MT-2 cells, collected, and aliquoted.
(§2) HIV-1 infectivity was determined by two distinct methods; an ELISA measuring HIV-1 core protein p24 production and a colorimetric assay for HIV-mediated cytopathogenesis. Briefly, 1×10^4 MT-2 cells in 96 well plates were infected with dilutions of HIV-1IIIB in 200 μl RPMI 1640 medium with 10% FBS. After 24 hrs., half of the culture medium was changed. On the fourth day after incubation at 37° C., 100 μl of culture supernatant was collected from each well and an equal volume of fresh medium was added to the wells. The collected supernatants were mixed with equal volumes of 5% Triton X-100 and assayed for p24 using a kit from Coulter Immunology (Hialeah, FL). On the sixth day post infection, an indicator XTT tetrazolium dye (1 mg/ml; 50μl/well; PolySciences, Inc., Warrington, Pa.) was added to the cells. After a 4 hr. period, intracellular formazan was determined calorimetrically at 450 nm. The percentage of cytopathogenesis was calculated using the following formula: [(OD450 in negative control-OD450 in experiment)/(OD450 in negative control-OD450 in positive control)] ×100.

[2] = test system: HIV-1IIIB; assay: Inhibition of HIV-1IIIB-mediated cytopathogenesis in MT-2 cells (XTT colorimetric assay); type: cell-based
Experimental: as §1, §2
Additionally, studies were performed to determine whether or not any of the peptides could inhibit the cytopathogenesis mediated by HIV-1.

[3] = test system: HIV-1 isolate MN; assay: Inhibition of infection by HIV-1 isolate MN; type: cell-based; details: FIG. 6
Experimental: as §1, §2

[4] = test system: HIV-1; details: FIG. 7
Experimental: Rabbit antiserum directed against this peptide was prepared. […] The mixture was tested for antiviral activity.

[5] = test system: MT-2 cells; assay: Cytotoxicity of peptides for MT-2 cells; details: for cytotoxicity: MT-2 cells
Experimental: Subsequently, cytotoxicity studies were performed using MT-2 cells at a final concentration of 12.5 μg/ml.

[6] = test system: HIV-1IIIB; assay: Inhibition of HIV-1IIIB replication in MT-2 cells (p24 ELISA); type: cell-based
Experimental: as §1, §2
Twenty-nine peptides from HIV-1IIIB gp160 (gp120/gp41) and 21 peptides from V3 hypervariable loops of distinct HIV-1 isolates were screened for their inhibitory activity on HIV-1 replication and HIV-1-mediated cytopathogenesis in MT-2 cells.

[7] = test system: HIV-1IIIB; assay: Inhibition of HIV-1IIIB replication in U937 cells (p24 production); type: cell-based; details: monocytic cell line U937, FIG. 4
Experimental: as §1, §2

[8] = test system: HIV-1 isolate RF; assay: Inhibition of infection by HIV-1 isolate RF; type: cell-based; details: FIG. 6
Experimental: as §1, §2

[9] = test system: HIV-1 isolate SF2; assay: Inhibition of infection by HIV-1 isolate SF2; type: cell-based; details: FIG. 6
Experimental: as §1, §2

[10] = test system: HIV-1IIIB infected H9 cells; assay: Inhibition of fusion of HIV-1IIIB infected H9 cells with uninfected H9 cells (syncytium count); type: cell-based
Experimental: The inhibitory effect of the peptide of the present invention on the fusion of HIV-1 infected cells with uninfected cells was also determined. In brief, 1.25×10^4 HIV-1IIIB infected H9 cells were mixed with the peptide and an equal number of uninfected H9 cells.

| Molecule | inhibition of infection (replication and cytopathogenesis) [1] | ED50 for inhibition of cytopathogenesis mediated by HIV-1IIIB ([2]; MT-2 cells, FIG. 5) [nM] | inhibition of cytopathogenesis mediated by HIV-1 ([2]; MT-2 cells, HIV-1IIIB, FIG. 2) | inhibition of HIV-1-mediated cytopathogenesis, dimer compared with monomer ([2]; comparative assay, FIG. 8) | inhibition of infection (replication and cytopathogenesis) [3] | inhibitory activity on p24 production after incubation with antiserum ([4]; peptide 1 μg/ml incubated with rabbit anti-(637-666) antiserum, 37° C., 30 minutes) | inhibition of p24 production ([4]; peptide 1 μg/ml, in the absence of antiserum) | cytotoxicity ([5]; concentration increased to 11.145 μM) | cytotoxicity ([5]; final concentration 12.5 μg/ml, FIG. 3) | 50% cytotoxic dose (CD50) ([5]; colorimetric assay) | inhibition of infection (replication and cytopathogenesis) ([6]; HIV-1 isolate IIIB, FIG. 6) | ED50 for inhibition of HIV-1IIIB replication (decrease of gag protein p24 production) ([6]; MT-2 cells, FIG. 5) [nM] | inhibition of HIV-1 replication, dimer compared with monomer ([6]; comparative assay, FIG. 8) | inhibition of HIV-1 replication (decrease of gag protein p24 synthesis) ([6]; final concentration 12.5 μg/ml, MT-2 cells, HIV-1IIIB, FIG. 1) | inhibition of p24 production [7] | inhibition of infection (replication and cytopathogenesis) [8] | inhibition of infection (replication and cytopathogenesis) [9] | ED50 for inhibition of cell fusion ([10]; HIV-1IIIB infected H9 cells, FIG. 5) [nM] | inhibition of cell fusion, dimer compared with monomer ([10]; comparative assay, FIG. 8) |
| --- | --- | --- | --- | --- | --- | --- | --- | --- | --- | --- | --- | --- | --- | --- | --- | --- | --- | --- | --- |
| Cc1cn([C@H]2C[C@H](N=[N+]=[N-])[C@@H](CO)O2)c(=O)[nH]c1=O [AZT, 3'azido-3'deoxythymidine, reference compound] | could not be effectively neutralized | – | – | – | – | – | – | – | – | – | – | – | – | – | – | – | – | – | – |
| I: EWDREINNYTSLIHSLIEESQNQQEKNEQEGGC / II: EWDREINNYTSLIHSLIEESQNQQEKNEQEGGC (disulfide I:33-II:33) [peptide (637-666)] | effectively inhibited infections | 142.0 | markedly inhibited cytopathogenesis | much more effective | effectively inhibited infections | significantly blocked | significantly inhibited p24 production | significant cytotoxicity remained undetectable | did not exhibit any cytotoxicity | > 11,145 nM | effectively inhibited infections | 101.0 | much more effective | significantly inhibited HIV-1 replication | significantly inhibited p24 production | effectively inhibited infections | effectively inhibited infections | 160.0 | much more effective |
